Measurements: US20060280690A1, “Methods of preparing a foam comprising a sclerosing agent” (priority 2003, published 2006)

Test: In vitro absorption of foam/gas in fresh human venous blood
Assay type: in vitro ADME
Conditions: 0.5 ml aliquot in 20 ml blood
Experimental: In vitro experiments were conducted to determine the absorption of foam made with different gases in fresh human venous blood.
A 20 ml polypropylene syringe barrel was prepared by puncturing its side wall with a relatively large hypodermic needle to make a hole approximately 1 mm in diameter. This hole was then covered by securing a piece of clear flexible vinyl sheet over it with clear adhesive tape. A small magnetic stirrer element was introduced into the syringe barrel and the plunger then replaced. 20 ml of human venous blood was then with withdrawn in the usual manner from a human subject using the specially prepared syringe fitted with a hypodermic needle.
The hypodermic needle was removed and the syringe then placed on a magnetic stirrer unit so that the magnetic element in the syringe thoroughly agitated the blood. The Luer nozzle of the syringe was then connected to a 50 cm piece of manometer tubing which was arranged horizontally and left open at one end. The manometer tubing was secured against a scale.
A 0.5 ml measuring syringe with a fine pre-fitted needle was then filled with foam made from 1% polidocanol solution and air. The density of the foam was 0.13 g/ml (±0.03 g/ml), the liquid component making up approximately 13% of the total volume of foam (±3%).
The needle of the 0.5 ml syringe was then introduced through the vinyl sheet on the side wall of the 20 ml syringe. […] The 0.5 ml aliquot of foam was then injected quickly and simultaneously a timer started (t0). As the foam displaced blood in the 20 ml syringe, the column of blood from the 20 ml syringe was displaced into the manometer tubing and the distance along the tubing reached by the distal end of the blood column was noted against the scale. The scale itself comprised spaced marker lines equally spaced at about 1 cm intervals. It was determined that a distance of 45 intervals on this scale corresponded to an internal volume of in the manometer tubing of approximately 0.5 ml.
As the gas in the foam started to be absorbed by the blood, the blood in the manometer tubing started to recede back towards the syringe. After the column appeared to have stopped moving, the timer was stopped (tF). The position of the distal end was again noted.
In this experiment, the air foam test was only observed for a few minutes after tF. However, further experiments have been conducted by the inventors, the results of which are not formally recorded here, involving foam with a percentage of nitrogen. A 20 ml syringe of fresh human venous blood, as in the above experiments, was injected with a 0.5 ml aliquot of a foam containing a percentage of nitrogen. The contents of the syringe were agitated as above and a period of 24 hours allowed to elapse.

With `O=O` [Oxygen, oxygen] the “Absorbed volume at tF” value was 0.46 mL, the Unabsorbed gas % was 8% and the Unabsorbed gas ml was 0.04 mL. For the same molecule, the “tF” value (time until blood column stopped moving) was 140 s.
